“And” between values parts separate entries of the source, which are not always exact repeats. Equal values may be shown once. Read-outs that look alike come from different tables or passages of the source.
Tests used:
[1] = target: T1, DHFR from E. coli (Escherichia coli, UniProt P0ABQ4); test: Fluorimetric binding assay, quenching of DHFR tryptophan emission (λexc = 280 nm); conditions: for TΔS°: from van't Hoff analysis; for ΔG°: standard free energy equation from ΔH° and TΔS°; for ΔH° / ΔS°: van't Hoff equation from Kd at 25, 10 and −4 °C
T1 construct: made in house
Experimental: The Hepes/methanol solutions of the gold(I) compounds were used for the fluorimetric assays (see materials and methods section) regarding DHFR from E. coli. The emission’s maximum of DHFR was detected at 344 nm upon excitation at 280 nm; by adding additional amounts of the gold complex in Hepes/methanol solutions (ranging among 4 ÷ 50 µM), the quenching of this emission intensity was observed. In Figure 3, spectra showing the effect of ^4L3AuCl on DHFR emission are reported. It is possible to observe the quenching of the Tryptophan’s emission and the corresponding increase of the intrinsic phosphorescence of the gold compound.
(§1) The fluorimetric analysis was performed using a 1 mL quartz cuvette and a Perkin–Elmer Fluorescence Spectrometer LS 55. For all the analysis we used 5–12 µM solutions of DHFR and increasing concentrations of gold(I) compounds in the 4–60 µM range. For some experiments, saturating concentrations of NADPH (50 µM) were added to the initial solutions of DHFR to observe the affinity variation of the complexes with respect to the DHFR.
All the spectra were recorded in the range between 250 and 600 nm using an excitation wavelength characteristic of the Tryptophan, equal to 280 nm. For most of the experiments the temperature was kept constant at 25 °C; furthermore, to analyze the thermodynamic aspects of the reactions (via the van’t Hoff equation), quenching spectra of DHFR in presence of the gold(I) complexes were recorded at −4 and 10 °C as well.
(§2) The fluorimetric data were analyzed using the binding isotherm (Equation (2)), where [Q] is the concentration of the added quenching ligand, F is the measured fluorescence, F0 is the starting fluorescence, Fc is the fluorescence of the fully complexed protein, Kd is the dissociation constant, and n is the Hill coefficient. Indeed, n is a phenomenological parameter, an interaction coefficient, such as when n = 1 the equation describes a complex formation with one site of interaction, when n = 2 binding occurs with a dimer, when 1 < n < 2 a cooperative interaction occurs. (2) F0−F/F−Fc=[Q]^n/(Kd+[Q])^n

[2] = target: T1, DHFR from E. coli; test: Inhibition of DHFR-catalysed reduction of H2F to H4F, spectrophotometric at 340 nm, Dixon plot; type: biochemical; conditions: pH 7.3, 30 °C, saturating NADPH, H2F 1.5-10 µM, Hepes/methanol
Experimental: The phosphane gold(I) compounds were used to prepare buffered stock solutions at pH = 7.3 at 30 °C for the inhibition tests of DHFR from E coli. In Table 1, the list of the gold(I) compounds used for the tests and the corresponding inhibition constants are reported.
The inhibition action of the gold phosphane compounds was tested in regards to the reduction of H2F to H4F reaction, catalyzed by DHFR [2]. The inhibition tests were led by analyzing the reciprocal reaction rate upon the addition of Hepes/methanol solutions of gold compounds in different set of tests in the saturated concentration of NADPH. The tests were repeated with different amounts of dihydrofolate (DHF) (1.5 ÷ 10 µM).
The standard deviations were calculated for a minimum of three determinations. (1) 1/ν=Km/VmaxKi[S]∗[I]+1/Vmax(1+Km/[S])
The activity of the DHFR was followed by recording the absorbance with a Shimadzu UV-2450 (UV-Vis spectrophotometer). The enzyme assays were made in a quartz cuvette by using similar experimental conditions: DHFR 3-5 nM, NADPH 60–80 μM, and H2F 1.5, 4, and 10 μM. The procedure consisted in the preparation of the following mixtures: 800–971 µL of 50 mM Hepes buffer at pH = 7.3, 20 μL of NADPH, 10 µl of DHFR, and increasing quantities of gold(I) compounds stock solutions in order to achieve higher accuracy in the measurement of the inhibitory effect. After storing the mixture for 5 min at 30 °C, 4–33 µL of H2F was added. The decreasing absorbance at 340 nm, due to the oxidation of NADPH to NADP^+, was detected after adding the H2F, and expressed in U mL^−1 using the equation: U·mL^−1 = Δabs/Δt/11.8 × dilution factor, where 11.8 is the mMolar extinction coefficient when NADPH and H2F are simultaneously present in solution. The Ki values were calculated with the Dixon plot from the second plot obtained computing the slope values against the reciprocal of the H2F concentrations.

[3] = target: T2, DHFR/NADPH (Escherichia coli, UniProt P0ABQ4); test: Fluorimetric binding assay on DHFR in presence of saturating NADPH; conditions: 25 °C, saturating NADPH (50 µM); read-out: Kd ± s.d. (25 °C) in presence of saturating NADPH
T2 construct: made in house
Text: After these preliminary emissive property characterizations, the fluorimetric studies were led in the presence of the enzyme DHFR and the cofactor NADPH [26]. […] Additionally, NADPH is fluorescent, with an absorption maximum at about 340 nm and an emission maximum at about 450 nm. […] Moreover, because NADPH has a maximum of absorption at 340 nm, significant energy transfer from the excited tryptophan of the enzyme to bound NADPH occurs; as a consequence, a new emission at 420–450 nm is then observed. Figure 8 reports the progressive quenching of the DHFR and NADPH emissions by stepwise adding of solution of ^4L3AuCl. Moreover, a slight shift of the typical emission at […] (λexc = 280 nm) is observed.
as §1, §2

[4] = target: T1, DHFR from E. coli; parameters: method as in PMID 25567238; conditions: values obtained in a previous work, cited from earlier work
[5] = UV-visible spectroscopy stability test in Hepes/methanol solution; type: physicochemical; conditions: 11.85 µM, Hepes/methanol 80:20, 30 °C, one hour, every 3 minutes
Experimental: The preparation of the gold compounds was performed according to methods already published and was based on the substitution of the labile ligand from the gold precursor [AuCl(Me2S)], by mean of a more coordinative ligand, such as the PPh3 or its modified analogs, ^4L and ^2L. Mole ratio with an excess of the phosphane ligand was pursued with the aim to enhance the reaction yield for tris-phosphane compounds. The solids obtained by crystallization were characterized by elemental analysis, ^1H and ^31P NMR, IR, and ESI Mass spectrometry. The stability of the stock solutions upon dilution was checked by recording UV-visible spectra (see Supplementary Material, Figures S1 and S2). The reactants for the ester reaction and ^4L or ^2L ligands were bought from Aldrich and used without any purification. Methanol or methylene chloride solvents were degassed and dried over molecular sieves.
UV-visible spectroscopy stability tests of compounds 4L3AuCl, 4L2AuCl, and 2L2AuCl on […]
Acquisitions of the absorptions in the range of 200–700 nm of the tested solutions were led for an hour lapse every 3 minutes in 11.85 µM concentration of 4L3AuCL (figure S1), 4L2AuCl, and 2L2AuCl (figure S2) at 30 °C. The stability was tested in Hepes/methanol 80:20, which are the same conditions used for the inhibition tests.
Figure S1. UV-visible spectra for 11.85 µM of 4L3AuCl in hepes/methanol
(1 picture or pasted object on this page, not shown here)

[6] = 25 °C, without NADPH, Hepes/methanol, read-out: Kd ± s.d., T = 25 °C
[7] = 10 °C, without NADPH, read-out: Kd ± s.d. (10 °C) (converted)
[8] = −4 °C, without NADPH, read-out: Kd ± s.d. (−4 °C) (converted)

| Structure (SMILES) | Kd [1, 6] [µM] | Ki [2] [µM] | Kd [1, 7] [µM] | TΔS° [1] | ΔG° [1] | ΔH° [1] | ΔS° [1] | Kd [1, 8] [µM] | Kd [3] [µM] | Ki ([4]; read-out: Ki) | further results |
| --- | --- | --- | --- | --- | --- | --- | --- | --- | --- | --- | --- |
| O=C(O)c1ccccc1 [Benzoic acid, reference compound] | ~4000 | – | – | – | – | – | – | – | – | – | – |
| [Cl][Au]([PH](c1ccccc1)(c1ccccc1)c1ccccc1)[PH](c1ccccc1)(c1ccccc1)c1ccccc1 [L2AuCl, (PPh3)2AuCl] | 5.99 ± 0.4 | 0.53 ± 0.03 | 2.47 | 2.5 n. d. * kcal/mol | −7.37 n. d. * kcal/mol | −4.87 n. d.* kcal/mol | 8.42 n. d. * cal/mol K | 3.83 | 2.22 ± 0.25 | – | Kd ([1]; conditions not stated in the conclusions, read-out: thermodynamic constant for the dissociation of the adduct [DHFR:(PPh3)2AuCl]): ~2 µM |
| c1ccc(P(c2ccccc2)c2ccccc2)cc1 [L, PPh3, reference compound] | – | – | – | – | – | – | – | – | – | 6.16 ± 0.77 µM | – |
| [Cl][Au].c1ccc(P(c2ccccc2)c2ccccc2)cc1 [LAuCl, PPh3AuCl] | – | – | – | – | – | – | – | – | – | 1.21 ± 0.2 µM | – |
| O=C(O)c1ccccc1P(c1ccccc1)c1ccccc1.O=C(O)c1ccccc1P(c1ccccc1)c1ccccc1.[Cl][Au] [^2L2AuCl, (2COOHPh-Ph2P)2AuCl] | 10.3 ± 0.65 | – | – | – | – | – | – | – | 4.73 ± 0.68 | 2 µM and 2.07 µM | Stability of the solution (UV-visible spectra 200–700 nm) [5]: no overall changes in solution over |
| O=C(O)c1ccccc1P(c1ccccc1)c1ccccc1.O=C(O)c1ccccc1P(c1ccccc1)c1ccccc1.O=C(O)c1ccccc1P(c1ccccc1)c1ccccc1.[Cl][Au] [^2L3AuCl, [tris(2-benzoate-diphenylphosphanyl)-gold(I)chloride]] | 10.5 ± 1.07 | 21.3 ± 3.8 | 7.12 | 2.86 ± 0.1 kcal/mol | -6.8 ± 0.14 kcal/mol | -3.94 ± 0.1 kcal/mol | 9.58 ± 0.08 cal/mol K | 5.11 | 7.32 ± 2.46 | – | n = Hill coefficient ([1]; 10 °C): 1.41 ± 0.048; n = Hill coefficient ([1]; 25 °C, when not specified n = 1): 1.23 ± 0.082 |
| O=C(O)c1ccccc1P(c1ccccc1)c1ccccc1 [^2L, 2-(diphenylphosphine) benzoic acid, reference compound] | – | – | – | – | – | – | – | – | – | – | Ki [4]: No inhibition * |
| O=C(O)c1ccccc1P(c1ccccc1)c1ccccc1.[Cl][Au] [^2LAuCl, (2COOHPh-Ph2P)AuCl] | – | – | – | – | – | – | – | – | – | 1.1 ± 0.3 µM | – |
| O=C(O)c1ccc(P(c2ccccc2)c2ccccc2)cc1.O=C(O)c1ccc(P(c2ccccc2)c2ccccc2)cc1.[Cl][Au] [^4L2AuCl, (4COOHPh-Ph2P)2AuCl] | 4.42 ± 0.56 | – | 3.52 | 5.29 ± 0.2 kcal/mol | -7.31 ± 0.28 kcal/mol | -2.02 ± 0.2 kcal/mol | 17.76 ± 0.1 cal/mol K | 3.06 | 2.35 ± 0.61 | 27 µM and 27.8 µM | Stability of the solution (UV-visible spectra 200–700 nm) [5]: no overall changes in solution over |
| O=C(O)c1ccc(P(c2ccccc2)c2ccccc2)cc1.O=C(O)c1ccc(P(c2ccccc2)c2ccccc2)cc1.O=C(O)c1ccc(P(c2ccccc2)c2ccccc2)cc1.O=S(=O)([O][Au])C(F)(F)F [^4L3AuTfl, [tris(4-benzoate-diphenylphosphanyl)-gold(I)triflate]] | 21.4 ± 3.85 | 6.33 ± 0.7 | – | 1.17 ± 0.9 kcal/mol | – | -5.32 ± 3.2 kcal/mol | 3.92 ± 8.8 cal/mol K | 8.08 | – | – | – |
| O=C(O)c1ccc(P(c2ccccc2)c2ccccc2)cc1 [^4L, 4-(diphenylphosphino)benzoic acid, reference compound] | 59.6 ± 5.7 | – | – | – | – | – | – | – | – | – | Ki [4]: No inhibition * |
| O=C(O)c1ccc(P(c2ccccc2)c2ccccc2)cc1.[Cl][Au] [^4LAuCl, (4COOHPh-Ph2P)AuCl] | – | – | – | – | – | – | – | – | – | 2.25 ± 0.62 µM | – |
| COC(=O)c1ccc(P(c2ccccc2)c2ccccc2)cc1.COC(=O)c1ccc(P(c2ccccc2)c2ccccc2)cc1.COC(=O)c1ccc(P(c2ccccc2)c2ccccc2)cc1.[Cl][Au] [^4MeL3AuCl] | 13.4 ± 2.24 | 12.7 ± 2.1 | 7.63 | 2.29 n. d. * kcal/mol | −6.64 n. d. * kcal/mol | −4.35 n. d. * kcal/mol | 7.69 n. d. * cal/mol K | 21.2 | 4.55 ± 1.04 | – | – |

Source: publication PMC6479694, “Studies on the Interaction between Poly-Phosphane Gold(I) Complexes and Dihydrofolate Reductase: An Interplay with Nicotinamide Adenine Dinucleotide Cofactor” (International Journal of Molecular Sciences, 2019)
